Data from patent US9149038B2, “4-amino-6-(heterocyclic)picolinates and 6-amino-2-(heterocyclic)pyrimidine-4-carboxylates and their use as herbicides” (Dow AgroSciences LLC, priority 2013, dated 2015).

Tested on: Key Broadleaf and Grass Weed as well as Crop Species
Test: Pre-Emergent Test I: preemergent herbicidal activity, herbicidal effect rating 14 days after treatment (Table 6)
Format: in vivo
Conditions: for Visual Growth Reduction (%) 14 Days After Application ECHCG: barnyardgrass (Echinochloa crus-galli); for Visual Growth Reduction (%) 14 Days After Application SETFA: giant foxtail (Setaria faberi); for Visual Growth Reduction (%) 14 Days After Application IPOHE: ivyleaf morningglory (Ipomoea hederecea); for Visual Growth Reduction (%) 14 Days After Application HELAN: sunflower (Helianthus annuus); for Visual Growth Reduction (%) 14 Days After Application AVEFA: wild oats (Avena fatua)
Method: Herbicidal evaluations were made visually on a scale of 0 to 100 where 0 represents no activity and 100 represents complete plant death. Pre-Emergent Test I: Seeds of test species were planted into round plastic pots (5-inch diameter) containing sandy loam soil. After planting, all pots were sub-irrigated 16 h prior to compound application. Compounds were dissolved in a 97:3 v/v mixture of acetone and DMSO and diluted to the appropriate concentration in a final application solution containing water, acetone, isopropanol, DMSO and Agri-dex (crop oil concentrate) in a 59:23:15:1.0:1.5 v/v ratio and 0.02% w/v (weight/volume) of Triton X-155 to obtain the spray solution containing the highest application rate. The high application rate was serial diluted with the above application solution to provide delivery of the compound at rates ½×, ¼× and ⅛× of the highest rate (equivalent to 4.0, 2.0, 1.0, and 0.5 kg/ha, respectively). Formulated compound (2.7 mL) was applied pipetted evenly over the soil surface followed by incorporation with water (15 mL). Following treatment, pots were returned to the greenhouse for the duration of the experiment. The greenhouse was programmed for an approximate 15 h photoperiod which was maintained at about 23-29° C. during the day and 22-28° C. during the night. Nutrients and water were added on a regular basis through surface irrigation and supplemental lighting was provided with overhead metal halide 1000-Watt lamps as necessary. Herbicidal effect ratings were obtained 14 days after treatment. All evaluations were made relative to appropriate controls on a scale of 0 to 100 where 0 represents no herbicidal effect and 100 represents plant death or lack of emergence from the soil and are presented as indicated in Table 4.

For `COC(=O)c1nc(-c2cccc3c2OCO3)c(F)c(N)c1Cl` [Compound 71, Methyl 4-amino-6-(benzo[d][1,3]dioxol-4-yl)-3-chloro-5-fluoropicolinate], which “Visual Growth Reduction (%) 14 Days After Application ECHCG” value (4 kg ai/ha) is on record?
Its value is “F (30-44)”.

What about the “Visual Growth Reduction (%) 14 Days After Application SETFA” value (4 kg ai/ha) of the same molecule?
The value was “G (0-29)”.

And the “Visual Growth Reduction (%) 14 Days After Application IPOHE” value (4 kg ai/ha)?
Its value is “E (45-59)”.

What about the “Visual Growth Reduction (%) 14 Days After Application HELAN” value (4 kg ai/ha) of the same molecule?
The value was “A (95-100)”.

What about the “Visual Growth Reduction (%) 14 Days After Application AVEFA” value (4 kg ai/ha) of the same molecule?
Its value is “F (30-44)”.

With `Nc1c(F)c(-c2cccc3c2OCO3)nc(C(=O)O)c1Cl` [Compound 72, 4-Amino-6-(benzo[d][1,3]dioxol-4-yl)-3-chloro-5-fluoropicolinic acid] as the molecule, how does the “Visual Growth Reduction (%) 14 Days After Application ECHCG” value (4 kg ai/ha) read?
Its value is “C (75-84)”.

What about the “Visual Growth Reduction (%) 14 Days After Application SETFA” value (4 kg ai/ha) of the same molecule?
The value was “G (0-29)”.

And the “Visual Growth Reduction (%) 14 Days After Application IPOHE” value (4 kg ai/ha)?
Its value is “G (0-29)”.

And the “Visual Growth Reduction (%) 14 Days After Application HELAN” value (4 kg ai/ha)?
The value was “A (95-100)”.

What about the “Visual Growth Reduction (%) 14 Days After Application AVEFA” value (4 kg ai/ha) of the same molecule?
Its value is “D (60-74)”.

`COC(=O)c1nc(-c2cccc3c2OC(F)(F)O3)c(F)c(N)c1Cl` [Compound 73] was tested. Which “Visual Growth Reduction (%) 14 Days After Application ECHCG” value (3.96 kg ai/ha) did it give?
The value was “G (0-29)”.

And the “Visual Growth Reduction (%) 14 Days After Application SETFA” value (3.96 kg ai/ha)?
Its value is “G (0-29)”.

And the “Visual Growth Reduction (%) 14 Days After Application IPOHE” value (3.96 kg ai/ha)?
The value was “C (75-84)”.

And the “Visual Growth Reduction (%) 14 Days After Application HELAN” value (3.96 kg ai/ha)?
The value was “A (95-100)”.

What about the “Visual Growth Reduction (%) 14 Days After Application AVEFA” value (3.96 kg ai/ha) of the same molecule?
Its value is “G (0-29)”.

Which results are given for `Nc1c(F)c(-c2cccc3c2OC(F)(F)O3)nc(C(=O)O)c1Cl` [Compound 74]?
Visual Growth Reduction (%) 14 Days After Application ECHCG (3.96 kg ai/ha): A (95-100); Visual Growth Reduction (%) 14 Days After Application SETFA (3.96 kg ai/ha): E (45-59); Visual Growth Reduction (%) 14 Days After Application IPOHE (3.96 kg ai/ha): D (60-74); Visual Growth Reduction (%) 14 Days After Application HELAN (3.96 kg ai/ha): A (95-100); Visual Growth Reduction (%) 14 Days After Application AVEFA (3.96 kg ai/ha): D (60-74)
